Reference: ChEMBL document CHEMBL3039007, “Structure-based identification of OATP1B1/3 inhibitors” (Mol Pharmacol, 2013)
Where “and” joins values, the source holds several entries; their conditions need not be identical. Identical values can stand only once.

Legend:
[1] = biological target: T1, Solute carrier organic anion transporter family member 1B1 (Homo sapiens, UniProt Q9Y6L6)
T1 sequence (Q9Y6L6 whole entry): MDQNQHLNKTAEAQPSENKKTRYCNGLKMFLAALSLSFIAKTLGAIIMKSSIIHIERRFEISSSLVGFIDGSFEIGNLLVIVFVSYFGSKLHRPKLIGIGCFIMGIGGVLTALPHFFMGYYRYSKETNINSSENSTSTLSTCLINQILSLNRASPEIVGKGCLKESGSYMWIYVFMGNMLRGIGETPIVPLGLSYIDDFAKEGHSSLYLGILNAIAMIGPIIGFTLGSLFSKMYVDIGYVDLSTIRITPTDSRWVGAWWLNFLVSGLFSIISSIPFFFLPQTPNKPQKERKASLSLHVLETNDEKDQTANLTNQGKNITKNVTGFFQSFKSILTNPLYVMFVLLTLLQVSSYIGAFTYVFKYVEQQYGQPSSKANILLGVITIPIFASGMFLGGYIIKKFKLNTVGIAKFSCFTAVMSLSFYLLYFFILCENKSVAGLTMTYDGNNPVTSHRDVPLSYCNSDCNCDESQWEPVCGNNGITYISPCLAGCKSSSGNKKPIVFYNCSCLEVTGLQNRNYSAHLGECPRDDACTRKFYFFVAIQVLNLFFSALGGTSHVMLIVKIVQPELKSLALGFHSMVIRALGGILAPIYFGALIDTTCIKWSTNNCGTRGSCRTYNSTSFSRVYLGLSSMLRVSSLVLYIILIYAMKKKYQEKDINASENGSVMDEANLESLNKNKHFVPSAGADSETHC

[2] = biological target: T2, Solute carrier organic anion transporter family member 1B3 (Homo sapiens, UniProt Q9NPD5)
T2 sequence (Q9NPD5 whole entry): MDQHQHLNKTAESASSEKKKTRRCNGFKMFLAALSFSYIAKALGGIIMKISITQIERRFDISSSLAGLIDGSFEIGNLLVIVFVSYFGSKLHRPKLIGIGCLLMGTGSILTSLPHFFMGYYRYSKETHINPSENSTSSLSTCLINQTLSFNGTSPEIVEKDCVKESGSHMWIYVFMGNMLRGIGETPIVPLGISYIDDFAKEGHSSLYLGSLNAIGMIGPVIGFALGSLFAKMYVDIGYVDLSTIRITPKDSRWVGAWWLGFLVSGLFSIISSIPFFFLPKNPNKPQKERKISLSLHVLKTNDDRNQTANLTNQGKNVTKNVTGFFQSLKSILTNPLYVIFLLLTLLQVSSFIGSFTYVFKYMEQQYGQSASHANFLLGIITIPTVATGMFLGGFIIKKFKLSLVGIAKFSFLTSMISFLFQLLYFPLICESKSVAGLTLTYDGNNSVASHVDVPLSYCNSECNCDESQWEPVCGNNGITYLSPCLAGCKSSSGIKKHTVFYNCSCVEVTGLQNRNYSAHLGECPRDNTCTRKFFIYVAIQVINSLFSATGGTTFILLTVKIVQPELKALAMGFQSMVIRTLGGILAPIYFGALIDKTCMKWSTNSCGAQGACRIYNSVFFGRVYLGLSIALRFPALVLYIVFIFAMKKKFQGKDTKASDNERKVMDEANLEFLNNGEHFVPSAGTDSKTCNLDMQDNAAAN

[3] = biological target: T1, Solute carrier organic anion transporter family member 1B1; conditions: chinese hamster, cho, 10 µM
[4] = biological target: T2, Solute carrier organic anion transporter family member 1B3; conditions: chinese hamster, cho, 10 µM
[5] = biological target: T1, Solute carrier organic anion transporter family member 1B1; remark: listed apart in the source

Row | SMILES | Ki [1] | Ki [2] | residual activity [3] [%] | residual activity [4] [%] | IC50 [5] [nM]
1 | C=C1[C@@H]2CC[C@@]3(C)[C@H](c4ccoc4)OC(=O)C[C@]13O[C@H]1C[C@H](O)C(C)(C)[C@H](CC(=O)OC)[C@]12C | 680 nM | 3060 nM | 16 | 17.5 | –
2 | CC(=O)O[C@@H]1C[C@H]2C(C)(C)[C@@H](O)CC[C@]2(C)[C@H]2CC[C@]3(C)C(=CC(=O)O[C@H]3c3ccoc3)[C@@]21C | 930 nM and 1490 nM | 2500 nM and 2390 nM | 31.46 | 25.89 | –
3 | CC(=O)O[C@@H]1CC2C(C)(C)[C@H](O)C[C@H](O)[C@@]2(C)C2CC[C@]3(C)C(=CC(=O)O[C@@H]3c3ccoc3)[C@]21C (some centres not stated) [1,3-DIDEACETYLDEOXYKHIVORIN] | 2960 nM | 6590 nM | 31.1 | 50.83 | –
4 | CC(=O)O[C@H]1CC[C@]2(C)C(C[C@@H](OC(C)=O)[C@]3(C)C4=CC(=O)O[C@H](c5ccoc5)[C@@]4(C)CCC23)C1(C)C (stereo partly drawn) [3-DEOXO-3beta-ACETOXYDEOXYDIHYDROGEDUNIN] | 410 nM | 2670 nM | 14.97 | 20.65 | –
5 | CCCCCC[C@H]1C(=O)O[C@H](C)[C@H](NC(=O)c2cccc(NC=O)c2O)C(=O)O[C@@H](C)[C@@H]1OC(=O)CC(C)C [ANTIMYCIN A] | 2200 nM | 3820 nM | 31.93 | 28.62 | –
6 | N[C@@H](C(=O)O)[C@@H](O)[C@H](O)[C@H](O)CO [GLUCOSAMINIC ACID] | – | – | 63.53 | 25.61 | 11700
7 | CCCCCN(CCCCC)C(=O)C(CCC(=O)[O-])NC(=O)c1ccc(Cl)c(Cl)c1.[Na+] (configuration not stated) [LORGLUMIDE SODIUM] | 2010 nM | 2710 nM | 16.54 | 32.85 | –
8 | CC[C@H]1/C=C/C=C/C[C@@H](C)[C@H](O)[C@@](C)(O)C(=O)[C@@H](C)[C@H](O)[C@@H](C)C(=O)[C@@H](C)[C@H](O)[C@@H](C)/C=C/C(=O)O[C@@H]2[C@H](C)[C@H](CC1)O[C@]1(CC[C@H](C)[C@H](C[C@@H](C)O)O1)[C@H]2C [OLIGOMYCIN] | 250 nM | 440 nM | 11.28 | 3.002 | –
9 | CC[C@@H](C(=O)[C@@H](C)[C@@H](O)[C@H](C)[C@@H]1O[C@@H]([C@@H](CC)C(=O)[O-])CC[C@@H]1C)[C@H]1O[C@]2(C=C[C@@H](O)[C@]3(CC[C@@](C)([C@H]4CC[C@](O)(CC)[C@H](C)O4)O3)O2)[C@H](C)C[C@@H]1C.[Na+] [SALINOMYCIN SODIUM] | 2030 nM | 3310 nM | 21.72 | 16.99 | –
10 | CCOC(=O)C1=C[C@]2(CC)CCCN3CCc4c(n1c1ccccc41)[C@@H]32 [VINPOCETINE] | – | – | 167.7 | 109.4 | –
11 | COc1cc(C/C=C/c2ccccc2)c(OC)cc1O [VIOLASTYRENE] | – | – | 27.49 | 47.88 | –
12 | COc1c2ccoc2cc2oc(C)cc(=O)c12 [VISNAGIN] | – | – | 127.2 | 98.15 | –
13 | CCCCCCCCCCCCCCCC(=O)OC/C=C(C)/C=C/C=C(C)/C=C/C1=C(C)CCCC1(C)C [VITAMIN A PALMITATE] | – | – | 77.04 | 85.92 | –
14 | COC(=O)/C(=C1/OC(=O)C(c2ccccc2)=C1O)c1ccccc1 [VULPINIC ACID] | – | – | 57.14 | 83.34 | –
15 | CC(=O)CC(c1ccccc1)c1c(O)c2ccccc2oc1=O (configuration not stated) [WARFARIN] | – | – | 122.2 | 66.67 | –
16 | O=c1c2ccccc2oc2ccccc12 [XANTHONE] | – | – | 123.7 | 131.5 | –
17 | Nc1nc(=O)c2[nH]c(=O)cnc2[nH]1 [XANTHOPTERIN] | – | – | 104.4 | 104.7 | –
18 | COc1cc(O)c(C(C)=O)c(OC)c1 [XANTHOXYLIN] | – | – | 128.7 | 104.3 | –
19 | O=C(O)c1cc(O)c2cccc(O)c2n1 [XANTHURENATE] | – | – | 115.8 | 99.4 | –
20 | CC1(C)C=Cc2cc3ccc(=O)oc3cc2O1 [XANTHYLETIN] | – | – | 75.53 | 85.95 | –

Row | SMILES | Ki [1] | Ki [2] | residual activity [3] [%] | residual activity [4] [%] | IC50 [5] [nM]
21 | Cc1cccc(C)c1N=C1NCCCS1 [XYLAZINE] | – | – | 64.31 | 83.59 | –
22 | COC(=O)CC1C(C)(C)C(OC(C)=O)[C@@H]2[C@@H](OC(C)=O)[C@]34O[C@@]2(O)[C@]1(C)C3CC[C@]1(C)C4=CC(=O)O[C@H]1c1ccoc1 (some centres not stated) [XYLOCARPUS A] | – | – | 22.54 | 9.764 | –
23 | Cc1cc(C(C)(C)C)cc(C)c1CC1=NCCN1.Cl [XYLOMETAZOLINE HYDROCHLORIDE] | – | – | 86.29 | 99.17 | –
24 | CCCOc1ccccc1-c1nc2nn[nH]c2c(=O)[nH]1 [ZAPRINAST] | – | – | 98.85 | 86.99 | –
25 | C[C@H]1CCCC(=O)CCC/C=C/c2cc(O)cc(O)c2C(=O)O1 [ZEARALENONE] | – | – | 55.9 | 91.51 | –
26 | Cc1cn([C@H]2C[C@H](N=[N+]=[N-])[C@@H](CO)O2)c(=O)[nH]c1=O [ZIDOVUDINE] | – | – | 134 | 95.75 | –
27 | CN(C)CCc1c[nH]c2ccc(C[C@H]3COC(=O)N3)cc12 [ZOLMITRIPTAN] | – | – | 95.98 | 102.5 | –
28 | Cc1ccc(-c2nc3ccc(C)cn3c2CC(=O)N(C)C)cc1 [ZOLPIDEM] | – | – | 177.4 | 78.05 | –
29 | Cc1cc(CC(=O)[O-])n(C)c1C(=O)c1ccc(Cl)cc1.O.O.[Na+] [ZOMEPIRAC SODIUM] | – | – | 132.9 | 118.7 | –
30 | N#C/C(=C\c1cccc(O)c1)C(=O)O [alpha-CYANO-3-HYDROXYCINNAMIC ACID] | – | – | 102.6 | 89.69 | –
31 | N#C/C(=C\c1ccc(O)cc1)C(=O)O [alpha-CYANO-4-HYDROXYCINNAMIC ACID] | – | – | 112.8 | 105.3 | –
32 | Cc1c(C)c2c(c(C)c1O)CCC(C)(CCCC(C)CCCC(C)CCCC(C)C)O2 (stereo not drawn) [alpha-TOCHOPHEROL] | – | – | 85.48 | 84.17 | –
33 | CC(=O)O[C@H]1CC[C@]2(C)[C@H]3CC=C4[C@@H]5CC(C)(C)CC[C@]5(C)CC[C@@]4(C)[C@]3(C)CC[C@H]2C1(C)C [beta-AMYRIN ACETATE] | – | – | 113 | 110 | –
34 | CC1(C)CC[C@]2(C)CC[C@]3(C)C(=CC[C@@H]4[C@@]5(C)CC[C@H](O)C(C)(C)[C@@H]5CC[C@]43C)[C@@H]2C1 [beta-AMYRIN] | – | – | 65.86 | 75.14 | –
35 | CC12CCCC(O)(C1)C1CC(C)(C)C1CC2 (stereo not drawn) [beta-CARYOPHYLLENE ALCOHOL] | – | – | 117.4 | 113 | –
36 | COc1cc2c(cc1OC)C1C(=O)c3c(cc4c(c3O)C=CC(C)(C)O4)OC1CO2 (stereo not drawn) [beta-TOXICAROL] | – | – | 67.84 | 70.52 | –
37 | N=C(N)NCCC[C@@H](NC(=O)[C@@H](N)Cc1ccc(O)cc1)C(=O)O [d[-Arg-2]KYOTORPHAN ACETATE] | – | – | 114.8 | 98.23 | –
38 | Cc1ccc(O)cc1 [p-CRESOL] | – | – | 115 | 101.1 | –
39 | O=C/C=C/c1ccc(O)cc1 [p-HYDROXYCINNAMALDEHYDE] | – | – | 139.6 | 70.79 | –
40 | NC/C=C/C(=O)O [t-4-AMINOCROTONIC ACID (TACA)] | – | – | 119.6 | 94.21 | –
